Measured values as given in ChEMBL document CHEMBL1201862, “PubChem BioAssay data set” (2004).
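Growth conditions: 96-well plates. Treatment: test compound, 48 hours, 5 concentrations. Analysis: linear interpolation between bracketing concentrations; unreached endpoints set to highest concentration. GI50 = concentration required for 50% inhibition of growth.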 Calls of active or inactive are those of the source. Rule as the data show it: active = GI50 up to about 1.1 µM and inactive = higher. Square brackets hold non-standard residues; d marks the D form. Peptide text beside a SMILES is read from it. * marks the point of attachment. Phe(4-NO2) = N[CH](Cc1ccc([N+](=O)[O-])cc1)C(=O)O; Boc = CC(C)(C)OC(=O)*

Key:
Test in all cases: growth of human tumour cells (NCI), 48 h
SF-295 = tested on: SF-295
SK-MEL-28 = tested on: SK-MEL-28
RPMI-8226 = tested on: RPMI-8226
BT-549 = tested on: BT-549
SNB-19 = tested on: SNB-19
SF-268 = tested on: SF-268
U-251 = tested on: U-251
A498 = tested on: A498
786-0 = tested on: 786-0
MDA-N = tested on: MDA-N
SR = tested on: SR
MDA-MB-231 = tested on: MDA-MB-231
UO-31 = tested on: UO-31
Hs-578T = tested on: Hs-578T
DU-145 = tested on: DU-145
NCI-H460 = tested on: NCI-H460
SK-MEL-2 = tested on: SK-MEL-2
CCRF-CEM = tested on: CCRF-CEM
NCI-H23 = tested on: NCI-H23
A549 = tested on: A549

Measured: GI50

CCCC(C)NC(=O)c1ccc(N(C)Cc2cnc3nc(N)nc(N)c3n2)cc1 (centres undefined)
inactive: SF-295 27.6 µM | SK-MEL-28 18.5 µM | RPMI-8226 91 µM | BT-549 15.5 µM | SNB-19 22.6 µM | SF-268 12 µM | U-251 14.8 µM | A498 69 µM | 786-0 10.5 µM | MDA-N 14.6 µM | SR 17.6 µM | MDA-MB-231 27.5 µM | UO-31 46.1 µM | Hs-578T 16.2 µM | DU-145 27.2 µM | NCI-H460 21.5 µM | SK-MEL-2 21.8 µM | CCRF-CEM 26.2 µM | NCI-H23 29.4 µM

COc1cccc2c1C(=O)C(=O)c1c-2oc(=O)c2cc(C)cc(OC)c12
inactive: SF-295 45.3 µM | SK-MEL-28 53.6 µM | RPMI-8226 20.6 µM | BT-549 13.5 µM | SNB-19 37.8 µM | SF-268 17.3 µM | U-251 12.8 µM | A498 > 75 µM | 786-0 26.2 µM | MDA-N 17.5 µM | SR 8.91 µM | MDA-MB-231 21.3 µM | UO-31 35 µM | Hs-578T 19.6 µM | DU-145 13.6 µM | NCI-H460 > 75 µM | SK-MEL-2 16 µM | CCRF-CEM 17.5 µM | NCI-H23 19.3 µM | A549 > 75 µM

O=CCCCCCOCc1ccccc1
inactive: SF-295 30.6 µM | SK-MEL-28 > 100 µM | RPMI-8226 25.1 µM | BT-549 > 100 µM | SNB-19 > 87.1 µM | SF-268 > 100 µM | U-251 69.5 µM | A498 > 100 µM | 786-0 23.8 µM | MDA-N > 100 µM | SR 39.6 µM | MDA-MB-231 > 87.1 µM | UO-31 > 87.1 µM | Hs-578T > 100 µM | DU-145 71.9 µM | NCI-H460 23.3 µM | SK-MEL-2 > 100 µM | CCRF-CEM 28 µM | NCI-H23 50.7 µM | A549 43.6 µM

CCCCn1c(C)c(C(=O)OCC)s/c1=N/Nc1nc2ccccc2nc1-c1ccccc1
inactive: SF-295 43.3 µM | SK-MEL-28 > 100 µM | RPMI-8226 86.3 µM | BT-549 > 100 µM | SNB-19 40.6 µM | U-251 43.6 µM | A498 58.5 µM | 786-0 49.1 µM | MDA-N > 100 µM | SR > 100 µM | MDA-MB-231 39.3 µM | Hs-578T 26.2 µM | DU-145 37.7 µM | NCI-H460 > 100 µM | SK-MEL-2 > 100 µM | CCRF-CEM > 100 µM | NCI-H23 92.9 µM | A549 50.4 µM

O=C(Nc1sccc1S(=O)(=O)c1ccc(Cl)cc1)c1ccc(F)cc1F
inactive: SF-295 23.3 µM | SK-MEL-28 > 100 µM | RPMI-8226 62.8 µM | BT-549 20.8 µM | SNB-19 21.9 µM | SF-268 19.7 µM | U-251 19.2 µM | A498 24.2 µM | 786-0 18.7 µM | MDA-N > 100 µM | SR 18.2 µM | MDA-MB-231 20.7 µM | UO-31 22.2 µM | Hs-578T 26.2 µM | DU-145 53.1 µM | SK-MEL-2 18.9 µM | CCRF-CEM 19.2 µM | NCI-H23 21 µM | A549 48.2 µM

O=C1c2ccccc2C(=O)N1c1ccc(OCCN2CCCCC2)cc1
inactive: SF-295 > 100 µM | SK-MEL-28 > 100 µM | RPMI-8226 > 100 µM | BT-549 > 100 µM | SNB-19 > 100 µM | SF-268 > 100 µM | U-251 > 100 µM | A498 > 100 µM | 786-0 > 100 µM | MDA-N > 100 µM | SR > 100 µM | MDA-MB-231 > 100 µM | Hs-578T > 100 µM | DU-145 > 100 µM | NCI-H460 > 100 µM | SK-MEL-2 > 100 µM | CCRF-CEM > 100 µM | NCI-H23 > 100 µM | A549 > 100 µM

O=C(CCCCCCCCC(=O)N1C(=O)CC(=O)N(c2ccccc2)C1=S)N1C(=O)CC(=O)N(c2ccccc2)C1=S
inactive: SF-295 > 100 µM | RPMI-8226 > 100 µM | BT-549 > 100 µM | SNB-19 > 100 µM | SF-268 > 100 µM | U-251 > 100 µM | A498 > 100 µM | 786-0 > 100 µM | MDA-N > 100 µM | SR > 100 µM | MDA-MB-231 > 100 µM | UO-31 > 100 µM | Hs-578T > 100 µM | DU-145 > 100 µM | NCI-H460 > 100 µM | SK-MEL-2 > 100 µM | CCRF-CEM > 100 µM | NCI-H23 > 100 µM | A549 > 100 µM

COc1ccc(NC(C)=O)c(C(O)CCNC(C)=O)c1 (centres undefined)
inactive: SF-295 > 100 µM | RPMI-8226 > 100 µM | BT-549 > 100 µM | SNB-19 > 100 µM | SF-268 > 100 µM | U-251 > 100 µM | A498 31.5 µM | 786-0 > 100 µM | MDA-N > 100 µM | SR > 100 µM | MDA-MB-231 > 100 µM | UO-31 > 100 µM | Hs-578T > 100 µM | DU-145 > 100 µM | NCI-H460 > 100 µM | SK-MEL-2 > 100 µM | CCRF-CEM > 100 µM | NCI-H23 > 100 µM | A549 > 100 µM

Nc1ccccc1C(=O)CCc1c[nH]c2ccccc12
inactive: SF-295 19.4 µM | SK-MEL-28 > 100 µM | RPMI-8226 > 100 µM | BT-549 19.3 µM | SNB-19 92.3 µM | SF-268 43.4 µM | U-251 27.4 µM | A498 > 100 µM | 786-0 46.2 µM | MDA-N > 100 µM | SR > 100 µM | MDA-MB-231 > 100 µM | UO-31 5.4 µM | Hs-578T 24.2 µM | DU-145 > 100 µM | NCI-H460 > 100 µM | SK-MEL-2 > 100 µM | A549 > 100 µM

CNC(=O)CCC(NC(=O)OC(C)(C)C)C(=O)NC(Cc1ccc([N+](=O)[O-])cc1)C(=O)NCC(=O)NC (centres undefined) (Boc-Glu(NHMe)-[Phe(4-NO2)]-Gly-NHMe; configuration not given here)
inactive: SF-295 > 100 µM | SK-MEL-28 > 100 µM | RPMI-8226 > 100 µM | BT-549 > 100 µM | SNB-19 > 100 µM | SF-268 > 100 µM | U-251 > 100 µM | A498 68.2 µM | 786-0 > 100 µM | MDA-N > 100 µM | SR > 100 µM | MDA-MB-231 > 100 µM | UO-31 > 100 µM | Hs-578T > 100 µM | DU-145 > 100 µM | NCI-H460 > 100 µM | NCI-H23 > 100 µM | A549 > 100 µM
